These results are taken from paper PMC10572743 (International Journal of Molecular Sciences, 2023).

Series [1] has as its system TNF-α production in PBMC stimulated with LPS. The note with it: previous research; read-out: PMBC-LPS/TNFα; cited from earlier work.
Series [2] has the same test system. Nature of the series: Inhibition of TNF-α production in PBMCs stimulated with LPS (ELISA). The note with it: Homo sapiens, average of 2 independent experiments (donors), LPS 1 ng/mL, 24 h, read-out: IC50/μM (av.) PMBC-LPS/TNF-α. The class given is cell-based. How it is done: PBMC isolation. Human peripheral blood mononuclear cells (PBMCs) were isolated from buffy coats obtained from healthy adult volunteers. The buffy coats were diluted with sterile PBS and layered over Lymphoprep (Axis-Shield Diagnostics, Dundee, UK). Tubes were centrifuged for 35 min at 400× g (RT; acceleration and break turned off). After centrifugation, the mononuclear ring was collected, transferred into a new 50 mL tube, and washed thrice with sterile PBS. The remaining erythrocytes were lysed with an isotonic solution of ammonium chloride (150 mM; Kemika, Zagreb, Croatia).
Treatment and stimulation of human PBMCs. Immediately after isolation, 200,000 PBMCs were seeded per well of a 96-well plate. Compounds were dissolved in 100% dimethyl sulfoxide (DMSO, Sigma, Darmstadt, Germany), and serial dilutions in DMSO were prepared and added to cells, with starting concentration for test compounds 100 µM or 1 µM for reference dexamethasone. […] Plates were incubated for 24 h at 37 °C, 5% CO2, followed by the collection of supernatants for measurement of TNF-α and cell viability assessment.
Enzyme-linked immunosorbent assay (ELISA) and cytotoxicity analysis. TNFα concentration in PBMC supernatants was measured using ELISA assay, using antibodies obtained from BD Pharmingen (San Diego, CA, USA) and recombinant human TNFα protein (standard) from R&D Systems (Minneapolis, MN, USA). Lumitrac 600 384-well plates (Greiner Bio-One, Kremsmünster, Austria) were coated overnight with 1 µg/mL of TNFα capture antibody diluted in phosphate-buffered saline (PBS, Thermo Fisher Scientific, Waltham, MA, USA), followed by a washing step and blocking with 5% sucrose in assay diluent (1% bovine serum albumin (BSA; Sigma, Darmstadt, Germany) in PBS) for 4 h at RT. After the blocking step, the plates were washed, and samples/standards were added to the plates. After overnight incubation at 4 °C, detection antibodies diluted in assay diluent to a final concentration of 250 ng/mL were added. Following incubation for 2 h at RT, plates were washed, and streptavidin-HRP (Thermo Fisher Scientific, Waltham, MA, USA) solution was added (final concentration 500 ng/mL, prepared in assay diluent). Plates were incubated for 20 min at RT in the dark and washed, followed by adding Luminol substrate (Sigma, Darmstadt, Germany). […] To evaluate cell viability, Cell Titer Glo reagent was used (Promega, Madison, WI, USA) according to the manufacturer’s instructions.
Data analysis. For ELISA, the blank was subtracted from measured RLU values, and TNFα concentrations in samples were interpolated from the standard curve. QC parameters for each plate were calculated from raw data. […] For viability assessment, the average luminescence value was calculated from all trigger vehicle samples, and the percentage of vehicle value was calculated for all samples. The compound effect was considered cytotoxic if reduction from a vehicle was ≥20%, and these concentrations were excluded from further analysis. IC50 values of tested compounds were determined in GraphPad Prism 9 software using nonlinear regression curve fit (four parameters, with variable slope).

For the next series, the system named is PBMCs. Nature of the series: Cell viability of PBMCs after incubation with compounds (ATP, Cell Titer Glo). It counts as cell-based. How it is done:
The potential to act anti-inflammatory was evaluated for 1,2,3-triazole derivatives 1–31 in vitro in an assay where PBMCs from 2 healthy donors were stimulated with LPS to induce the immune response. As a measurement of response, the pro-inflammatory cytokine TNF-α was determined. […] […].
Treatment and stimulation of human PBMCs. Immediately after isolation, 200,000 PBMCs were seeded per well of a 96-well plate. Compounds were dissolved in 100% dimethyl sulfoxide (DMSO, Sigma, Darmstadt, Germany), and serial dilutions in DMSO were prepared and added to cells, with starting concentration for test compounds 100 µM or 1 µM for reference dexamethasone. After pre-incubation for 1h with the compounds, lipopolysaccharide (LPS) from E. coli 0111:B4 (Sigma, Darmstadt, Germany) was added to cells at 1 ng/mL final concentration. Plates were incubated for 24 h at 37 °C, 5% CO2, followed by the collection of supernatants for measurement of TNF-α and cell viability assessment.
Enzyme-linked immunosorbent assay (ELISA) and cytotoxicity analysis. TNFα concentration in PBMC supernatants was measured using ELISA assay, using antibodies obtained from BD Pharmingen (San Diego, CA, USA) and recombinant human TNFα protein (standard) from R&D Systems (Minneapolis, MN, USA). Lumitrac 600 384-well plates (Greiner Bio-One, Kremsmünster, Austria) were coated overnight with 1 µg/mL of TNFα capture antibody diluted in phosphate-buffered saline (PBS, Thermo Fisher Scientific, Waltham, MA, USA), followed by a washing step and blocking with 5% sucrose in assay diluent (1% bovine serum albumin (BSA; Sigma, Darmstadt, Germany) in PBS) for 4 h at RT. After the blocking step, the plates were washed, and samples/standards were added to the plates. […]. Following incubation for 2 h at RT, plates were washed, and streptavidin-HRP (Thermo Fisher Scientific, Waltham, MA, USA) solution was added (final concentration 500 ng/mL, prepared in assay diluent). Plates were incubated for 20 min at RT in the dark and washed, followed by adding Luminol substrate (Sigma, Darmstadt, Germany). Luminescence was measured using EnVision 2104 Multilabel Plate Reader (PerkinElmer, MA, USA), with an exposition time of 0.1 s. […]
Data analysis. For ELISA, the blank was subtracted from measured RLU values, and TNFα concentrations in samples were interpolated from the standard curve. QC parameters for each plate were calculated from raw data. […] For viability assessment, the average luminescence value was calculated from all trigger vehicle samples, and the percentage of vehicle value was calculated for all samples. […] IC50 values of tested compounds were determined in GraphPad Prism 9 software using nonlinear regression curve fit (four parameters, with variable slope).
(In general: Cellular ATP, detected with luciferase, serves as a proxy for viable cell number.)

Where [3] appears, read: PBMC, ATP levels, highest tested concentration.

Like-named read-outs stand apart in the source and are kept apart here. Marks after values point to notes of the source that are not given here.

As for `COc1ccc(Cn2nnc3ccc4ccc(OC)cc4c32)cc1` [C], the IC50 in series [1] is 2.2 µM.

With `FC(F)(F)Oc1ccc(Cn2nnc3ccc4sccc4c32)cc1` [Compound 20], the IC50 in series [2] stood at 8.9 µM. In addition, in the series with PBMCs (setting [3]), the cell viability result is reported as “cell viability reduction”.

As to `C=CCn1nnc2ccc3sccc3c21` [A], the IC50 in series [1] is 27.7 µM.

Turning to `FC(F)(F)c1ccc(Cn2nnc3ccc4sccc4c32)cc1` [Compound 19], in series [2], the IC50 came to 10.2 µM. In addition, the “cell viability” value is on record as 10.2 ** with PBMCs and “cell viability reduction” in the series on PBMCs (setting [3]).

On to `COc1ccc2ccc3nnn(CCCCO)c3c2c1` [B], for which the IC50 in series [1] is 7.9 µM.

Consider `FC(F)(F)c1ccc(Cn2nnc3c2-c2ccsc2CC3)cc1` [Compound 26], for which the IC50 in series [2] amounted to 9.4 µM. Also, in the series with PBMCs (setting [3]), the cell viability result is reported as “cell viability reduction”.
